Data published in PubChem BioAssay AID1963853 (Molecular Pharmacology Branch, DTP, NCI, 2024).

System: 266295-075-R-J1-PDC spheroid viability
Test: Anticancer human tumor 266295-075-R-J1-PDC patient-derived head and neck squamous carcinoma cell line growth inhibition [POLQ]
Settings: spheroids with HUVEC and MSC; for IC50: curve of first compound; for viability, T/C: stronger effect = lower value; active = viability on the fitted dose curve at most 10% of control; inactive = the rest
How it was run: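 Growth inhibition in 3D: complex spheroids (tumor PDC, HUVEC, MSC) treated with POLQ inhibitor combinations; where Cmax unknown, highest tested concentration 10 microM, except SN-38 at 1 microM.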

[1] = second compound 0.0316 µM, first compound 0.0316 µM
[2] = second compound 0.0316 µM, first compound 0.1 µM
[3] = second compound 0.1 µM, first compound 0.0316 µM
[4] = second compound 0.1 µM, first compound 0.1 µM
[5] = second compound 0.316 µM, first compound 0.0316 µM
[6] = second compound 0.316 µM, first compound 0.1 µM
[7] = second compound 1 µM, first compound 0.0316 µM
[8] = second compound 1 µM, first compound 0.1 µM
[9] = second compound 3.16 µM, first compound 0.0316 µM
[10] = second compound 3.16 µM, first compound 0.1 µM
[11] = second compound 10 µM, first compound 0.0316 µM
[12] = second compound 10 µM, first compound 0.1 µM
[13] = second compound 0.0316 µM, first compound 0.316 µM
[14] = second compound 0.0316 µM, first compound 1 µM
[15] = second compound 0.0316 µM, first compound 3.16 µM
[16] = second compound 0.0316 µM, first compound 10 µM
[17] = second compound 0.1 µM, first compound 0.316 µM
[18] = second compound 0.1 µM, first compound 1 µM
[19] = second compound 0.1 µM, first compound 3.16 µM
[20] = second compound 0.1 µM, first compound 10 µM
[21] = second compound 0.316 µM, first compound 0.316 µM
[22] = second compound 0.316 µM, first compound 1 µM
[23] = second compound 0.316 µM, first compound 3.16 µM
[24] = second compound 0.316 µM, first compound 10 µM
[25] = second compound 1 µM, first compound 0.316 µM
[26] = second compound 1 µM, first compound 1 µM
[27] = second compound 1 µM, first compound 3.16 µM
[28] = second compound 1 µM, first compound 10 µM
[29] = second compound 3.16 µM, first compound 0.316 µM
[30] = second compound 3.16 µM, first compound 1 µM
[31] = second compound 3.16 µM, first compound 3.16 µM
[32] = second compound 3.16 µM, first compound 10 µM
[33] = second compound 10 µM, first compound 0.316 µM
[34] = second compound 10 µM, first compound 1 µM
[35] = second compound 10 µM, first compound 3.16 µM
[36] = second compound 10 µM, first compound 10 µM
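Also: spheroids exposed to compounds for seven days before readout.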

CC[C@@]1(O)C(=O)OCc2c1cc1n(c2=O)Cc2cc3c(CN(C)C)c(O)ccc3nc2-1 + Cc1cccc(N(C)C(=O)C2C(O)CCN2c2nc(C)cc(C(F)(F)F)c2C#N)c1
> 0.1 µM: IC50 (second compound 0.0316 µM) | IC50 (second compound 0.1 µM) | IC50 (second compound 0.316 µM) | IC50 (second compound 1 µM) | IC50 (second compound 3.16 µM) | IC50 (second compound 10 µM)
inactive: viability, T/C (second compound 0.0316 µM, first compound 0.000316 µM) 75% | viability, T/C (second compound 0.0316 µM, first compound 0.001 µM) 85.8% | viability, T/C (second compound 0.0316 µM, first compound 0.00316 µM) 107% | viability, T/C (second compound 0.0316 µM, first compound 0.01 µM) 83.8% | viability, T/C [1] 91.3% | viability, T/C [2] 76.3% | viability, T/C (second compound 0.1 µM, first compound 0.000316 µM) 94.2% | viability, T/C (second compound 0.1 µM, first compound 0.001 µM) 90.1% | viability, T/C (second compound 0.1 µM, first compound 0.00316 µM) 77.6% | viability, T/C (second compound 0.1 µM, first compound 0.01 µM) 81.2% | viability, T/C [3] 86.6% | viability, T/C [4] 77.8% | viability, T/C (second compound 0.316 µM, first compound 0.000316 µM) 101% | viability, T/C (second compound 0.316 µM, first compound 0.001 µM) 88% | viability, T/C (second compound 0.316 µM, first compound 0.00316 µM) 88% | viability, T/C (second compound 0.316 µM, first compound 0.01 µM) 86.8% | viability, T/C [5] 106% | viability, T/C [6] 93.9% | viability, T/C (second compound 1 µM, first compound 0.000316 µM) 79% | viability, T/C (second compound 1 µM, first compound 0.001 µM) 103% | viability, T/C (second compound 1 µM, first compound 0.00316 µM) 85.2% | viability, T/C (second compound 1 µM, first compound 0.01 µM) 91.2% | viability, T/C [7] 92.3% | viability, T/C [8] 87.7% | viability, T/C (second compound 3.16 µM, first compound 0.000316 µM) 78% | viability, T/C (second compound 3.16 µM, first compound 0.001 µM) 94.2% | viability, T/C (second compound 3.16 µM, first compound 0.00316 µM) 92.4% | viability, T/C (second compound 3.16 µM, first compound 0.01 µM) 87.2% | viability, T/C [9] 91.9% | viability, T/C [10] 78.2% | viability, T/C (second compound 10 µM, first compound 0.000316 µM) 122% | viability, T/C (second compound 10 µM, first compound 0.001 µM) 93.8% | viability, T/C (second compound 10 µM, first compound 0.00316 µM) 93.3% | viability, T/C (second compound 10 µM, first compound 0.01 µM) 109% | viability, T/C [11] 115% | viability, T/C [12] 88.4%

COc1cc(C2c3cc4c(cc3C(OC3OC5COC(C)OC5C(O)C3O)C3COC(=O)C23)OCO4)cc(OC)c1O (stereo unspecified) + Cc1cccc(N(C)C(=O)C2C(O)CCN2c2nc(C)cc(C(F)(F)F)c2C#N)c1
> 10 µM: IC50 (second compound 0.0316 µM) | IC50 (second compound 0.1 µM) | IC50 (second compound 0.316 µM) | IC50 (second compound 1 µM) | IC50 (second compound 3.16 µM) | IC50 (second compound 10 µM)
inactive: viability, T/C [1] 83.3% | viability, T/C [2] 75.2% | viability, T/C [13] 82.2% | viability, T/C [14] 75.8% | viability, T/C [15] 75.3% | viability, T/C [16] 64.9% | viability, T/C [3] 78.8% | viability, T/C [4] 82.2% | viability, T/C [17] 72.5% | viability, T/C [18] 69.4% | viability, T/C [19] 70.7% | viability, T/C [20] 70.2% | viability, T/C [5] 96.5% | viability, T/C [6] 73.1% | viability, T/C [21] 73.9% | viability, T/C [22] 76.3% | viability, T/C [23] 73.1% | viability, T/C [24] 57.9% | viability, T/C [7] 86.1% | viability, T/C [8] 95.4% | viability, T/C [25] 82% | viability, T/C [26] 86.2% | viability, T/C [27] 73.4% | viability, T/C [28] 68.1% | viability, T/C [9] 85.8% | viability, T/C [10] 76.2% | viability, T/C [29] 77.5% | viability, T/C [30] 68.5% | viability, T/C [31] 68.1% | viability, T/C [32] 62.8% | viability, T/C [11] 101% | viability, T/C [12] 72.5% | viability, T/C [33] 69.2% | viability, T/C [34] 72.2% | viability, T/C [35] 72.5% | viability, T/C [36] 60%

O=c1[nH]cc(F)c(=O)[nH]1 + Cc1cccc(N(C)C(=O)C2C(O)CCN2c2nc(C)cc(C(F)(F)F)c2C#N)c1
> 10 µM: IC50 (second compound 0.0316 µM) | IC50 (second compound 0.1 µM) | IC50 (second compound 0.316 µM) | IC50 (second compound 1 µM) | IC50 (second compound 3.16 µM) | IC50 (second compound 10 µM)
inactive: viability, T/C [1] 87.9% | viability, T/C [2] 81% | viability, T/C [13] 101% | viability, T/C [14] 92.1% | viability, T/C [15] 77.8% | viability, T/C [16] 85.1% | viability, T/C [3] 120% | viability, T/C [4] 87.6% | viability, T/C [17] 84.3% | viability, T/C [18] 99.7% | viability, T/C [19] 104% | viability, T/C [20] 83.1% | viability, T/C [5] 77.2% | viability, T/C [6] 99.8% | viability, T/C [21] 90.6% | viability, T/C [22] 92.6% | viability, T/C [23] 92.4% | viability, T/C [24] 63.5% | viability, T/C [7] 98.5% | viability, T/C [8] 97.9% | viability, T/C [25] 95.2% | viability, T/C [26] 97.7% | viability, T/C [27] 99.5% | viability, T/C [28] 96.9% | viability, T/C [9] 105% | viability, T/C [10] 98.9% | viability, T/C [29] 102% | viability, T/C [30] 136% | viability, T/C [31] 95.4% | viability, T/C [32] 73.8% | viability, T/C [11] 89.8% | viability, T/C [12] 96.8% | viability, T/C [33] 110% | viability, T/C [34] 94.3% | viability, T/C [35] 92.9% | viability, T/C [36] 71.6%
